Like-named read-outs stand apart in the source and are kept apart here.
Tests used:
[1] = biological target: soluble human BACE1 catalytic domain (Homo sapiens (Human), UniProt P56817); test: BACE1 HTRF FRET Assay
[2] = biological target: purified human autoBACE-2 (Homo sapiens (Human), UniProt Q9Y5Z0); test: BACE-2 Assay (BACE-HTRF assay); type: biochemical; details: for Ki: Ki calculated from IC50 using the Cheng-Prusoff equation, read-out: BACE2 Ki; for inhibition at 10 µM: read-out: inhibition of BACE2 at 10 μM
Method: Inhibitor IC50s at purified human autoBACE-2 are determined in a time-resolved endpoint proteolysis assay that measures hydrolysis of the QSY7-[…]-Eu-amide FRET peptide substrate (BACE-HTRF assay). […] DMSO is present at 5% final concentration in the assay. Following laser excitation of sample wells at 320 nm, the fluorescence signal at 620 nm is collected for 400 ms following a 50 μs delay on a RUBYstar HTRF plate reader (BMG Labtechnologies). Raw RFU data is normalized to maximum (1.0 nM BACE/DMSO) and minimum (no enzyme/DMSO) RFU values. […] The Ki values are calculated from the IC50 using the Cheng-Prusoff equation.

[3] = read-out: BACE1 Ki, Ki calculated from IC50 using the Cheng-Prusoff equation

Sequence of soluble human BACE1 catalytic domain (P56817 75-416): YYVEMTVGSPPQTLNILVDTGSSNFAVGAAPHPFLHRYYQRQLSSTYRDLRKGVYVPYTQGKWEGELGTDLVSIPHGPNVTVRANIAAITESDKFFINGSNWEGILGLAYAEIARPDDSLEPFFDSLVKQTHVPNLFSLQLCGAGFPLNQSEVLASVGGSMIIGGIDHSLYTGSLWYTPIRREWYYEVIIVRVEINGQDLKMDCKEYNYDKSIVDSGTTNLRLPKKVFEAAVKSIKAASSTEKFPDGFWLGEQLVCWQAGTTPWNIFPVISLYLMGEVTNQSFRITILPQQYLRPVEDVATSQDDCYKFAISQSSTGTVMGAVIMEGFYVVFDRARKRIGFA
Sequence of purified human autoBACE-2 (Q9Y5Z0 63-473): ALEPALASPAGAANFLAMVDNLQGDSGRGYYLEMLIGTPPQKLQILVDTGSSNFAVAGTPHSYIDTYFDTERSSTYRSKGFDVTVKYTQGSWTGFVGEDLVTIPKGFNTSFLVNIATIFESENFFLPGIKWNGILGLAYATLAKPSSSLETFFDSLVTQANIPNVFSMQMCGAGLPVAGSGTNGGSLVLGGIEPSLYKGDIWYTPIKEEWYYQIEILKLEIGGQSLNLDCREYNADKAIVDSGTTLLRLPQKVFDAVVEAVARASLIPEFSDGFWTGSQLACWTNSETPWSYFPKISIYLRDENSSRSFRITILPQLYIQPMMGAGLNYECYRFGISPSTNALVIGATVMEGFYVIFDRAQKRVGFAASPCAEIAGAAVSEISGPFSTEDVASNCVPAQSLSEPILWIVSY

Structure (SMILES) | Ki [1, 3] | Ki [2] | Ki ([1]; read-out: BACE1 Ki) | other results
COc1cnc(C(=O)Nc2ccc(F)c([C@]3(C)CS(=O)(=O)[C@](C)(c4ccc(F)cc4)C(=N)N3)c2)cn1 [Example 9dg-b] | 186 nM | 0.101 to 0.7 µM | – | –
COc1cnc(C(=O)Nc2ccc(F)c([C@]3(C)CS(=O)(=O)[C@](C)(CC4CC4)C(=N)N3)c2)cn1 [Example 9dk-b] | 42.6 nM | 0.011 to 0.1 µM | – | –
C[C@@]1(c2cc(NC(=O)c3ccc(C(F)(F)F)cn3)ccc2F)CS(=O)(=O)[C@](C)(CC2CC2)C(=N)N1 [Example 9dl-b] | 33.2 nM | 0.011 to 0.1 µM | – | –
C=CC[C@]1(C)C(=N)N[C@](C)(c2cc(NC(=O)c3cnc(OC)cn3)ccc2F)CS1(=O)=O [Example 9dm-b] | 33.6 nM | 0.011 to 0.1 µM | – | –
C[C@@]1(c2cc(NC(=O)c3ccc(F)cn3)ccc2F)CS(=O)(=O)[C@](C)(CC(F)(F)F)C(=N)N1 [Example 9dp-b] | 74.5 nM | 0.011 to 0.1 µM | – | –
COc1ccc(C(=O)Nc2ccc(F)c([C@]3(C)CS(=O)(=O)[C@](C)(CC(F)(F)F)C(=N)N3)c2)nc1 [Example 9dq-b] | 54.3 nM | 0.011 to 0.1 µM | – | –
COc1cnc(C(=O)Nc2ccc(F)c([C@]3(C)CS(=O)(=O)[C@](C)(CC(F)(F)F)C(=N)N3)c2)cn1 [Example 9dr-b] | 137 nM | 0.101 to 0.7 µM | – | –
C[C@@]1(C2CCC2)C(=N)N[C@](C)(c2cc(NC(=O)c3ccc(F)cn3)ccc2F)CS1(=O)=O [Example 9dv-b] | 304 nM | 0.011 to 0.1 µM | – | –
C[C@@]1(C2CCC2)C(=N)N[C@](C)(c2cc(NC(=O)c3ccc(Cl)cn3)ccc2F)CS1(=O)=O [Example 9dw-b] | 66.3 nM | 0.011 to 0.1 µM | – | –
COc1ccc(C(=O)Nc2ccc(F)c([C@]3(C)CS(=O)(=O)[C@](C)(C4CCC4)C(=N)N3)c2)nc1 [Example 9dx-b] | 307 nM | 0.101 to 0.7 µM | – | –
COc1cnc(C(=O)Nc2ccc(F)c([C@]3(C)CS(=O)(=O)[C@](C)(C4CCC4)C(=N)N3)c2)cn1 [Example 9dy-b] | 499 nM | 0.101 to 0.7 µM | – | –
C[C@@]1(C2CCC2)C(=N)N[C@](C)(c2cc(NC(=O)c3ccc(C(F)(F)F)cn3)ccc2F)CS1(=O)=O [Example 9dz-b] | 123 nM | 0.101 to 0.7 µM | – | –
CC(C)[C@]1(C)C(=N)N[C@](C)(c2cc(NC(=O)c3ccc(F)cn3)ccc2F)CS1(=O)=O [Example 9ea-b] | 224 nM | 0.011 to 0.1 µM | – | –
COc1ccc(C(=O)Nc2ccc(F)c([C@]3(C)CS(=O)(=O)[C@](C)(C(C)C)C(=N)N3)c2)nc1 [Example 9eb-b] | 257 nM | 0.101 to 0.7 µM | – | –
COc1cnc(C(=O)Nc2ccc(F)c([C@]3(C)CS(=O)(=O)[C@@](C)(C(C)C)C(=N)N3)c2)cn1 [Example 9ec-a] | 14.9 nM | 0.011 to 0.1 µM | – | –
COc1cnc(C(=O)Nc2ccc(F)c([C@]3(C)CS(=O)(=O)[C@](C)(C(C)C)C(=N)N3)c2)cn1 [Example 9ec-b] | 522 nM | 0.101 to 0.7 µM | – | –
CC1(C)C(=N)N[C@](C)(c2cc(NC(=N)c3ncc(F)cc3F)ccc2F)CS1(=O)=O [Example 9ef] | 989 nM | 0.218 µM | – | –

Structure (SMILES) | Ki [1, 3] | Ki [2] | Ki ([1]; read-out: BACE1 Ki) | other results
Cc1nnc(C(=O)Nc2ccc(F)c([C@]3(C)CS(=O)(=O)C(C)(C)C(=N)N3)c2)o1 [Example 9i] | 185 nM | 0.049 µM | – | –
COc1cnc(C(=O)Nc2cc(F)c(F)c([C@]3(C)CS(=O)(=O)C(C)(C)C(=N)N3)c2)cn1 [Example 9n] | 6.6 nM | 0.012 µM | – | –
CC1(C)C(=N)N[C@](C)(c2cc(NC(=O)c3ccc(C(F)(F)F)cn3)cc(Cl)c2F)CS1(=O)=O [Example 9v] | 9.6 nM | 0.013 µM | – | –
COc1ccc(C(=O)Nc2ccc(F)c([C@]3(C)CS(=O)(=O)C(C)(C)C(=N)N3)c2F)nc1 [Example 9y] | 44 nM | 0.011 µM | – | –
COc1cnc(C(=O)Nc2ccc(F)c([C@]3(C)CS(=O)(=O)C(C)(C)C(=N)N3)c2F)cn1 [Example 9z] | 52.9 nM | 0.059 µM | – | –
CC1(C)C(=N)N[C@](C)(c2sc(C(=O)Nc3cccc(Cl)n3)cc2Cl)CS1(=O)=O [Example 20] | 26.9 nM | 0.008 µM | – | –
CC1(C)C(=N)N[C@](C)(c2sc(-c3cncc(C#N)c3)cc2Cl)CS1(=O)=O [Example 23] | 63 nM | < 0.2 µM | – | –
CC1(C)C(=N)N[C@](C)(c2sc(-c3cncnc3)cc2Cl)CS1(=O)=O [Example 24] | 387 nM | 0.314 µM | – | –
C[C@]1(CC(F)(F)F)C(=N)N[C@](C)(c2sc(-c3cccc(C#N)c3)cc2F)CS1(=O)=O [Example 27bj-a] | – | 0.007 µM | 35.7 nM | –
C[C@]1(CC(F)(F)F)C(=N)N[C@](C)(c2sc(-c3cccc(-c4nnco4)c3)cc2F)CS1(=O)=O [Example 27bk-a] | – | 0.009 µM | 4.7 nM | –
COc1cccc(-c2cc(F)c([C@]3(C)CS(=O)(=O)[C@@](C)(CC(F)(F)F)C(=N)N3)s2)c1 [Example 27bl-a] | – | 0.009 µM | 223 nM | –
CC1(CC(F)(F)F)C(=N)N[C@](C)(c2sc(-c3ccc(F)c(C#N)c3)cc2F)CS1(=O)=O (some centres unmarked) [Example 27bm-a] | – | 0.007 µM | 35 nM | –
C[C@@]1(c2sc(-c3cccc(C#N)c3)cc2F)CS(=O)(=O)[C@@](C)(c2cccc(F)c2)C(=N)N1 [Example 27br-a] | – | 0.01 µM | 58.5 nM | –
C[C@@]1(c2sc(-c3cccc(C#N)c3)cc2F)CS(=O)(=O)[C@@](C)(c2ccccc2F)C(=N)N1 [Example 27bs-a] | – | 0.009 µM | 68.3 nM | –
Cc1nc2cc(CC3(C)C(=N)N[C@](C)(c4cc(F)ccc4F)CS3(=O)=O)ccc2s1 (some centres unmarked) [Example 32-a] | – | – | – | BACE1 inhibition, % Inh. at 10 μM ([1]; at 10 μM): 0% Inh at 10 μM; inhibition at 10 µM [2]: 1 to 24%
COc1cccc([C@]2(C)C(=N)N[C@](C)(c3cc(F)ccc3F)CS2(=O)=O)c1 [Example 32e-b] | – | – | – | inhibition at 10 µM ([1]; read-out: BACE1 inhibition, % Inh. at 10 μM, at 10 μM): 22%; inhibition at 10 µM [2]: 1 to 24%

Further lines, with some results ahead:

Ki [1, 3] | Ki [2] | Ki ([1]; read-out: BACE1 Ki) | Structure (SMILES) | other results
– | 0.445 µM | – | CC1(C)C(=N)N[C@](C)(c2cc(-c3cc(F)cc(-c4nnco4)c3)ccc2F)CS1(=O)=O [Example 16a] | inhibition at 1 µM ([1]; read-out: BACE1 % Inh. at 1 μM, at 1 μM): 43%
616 nM | 1.8 µM | – | CC1=NOC(CNC(=O)c2cc(Cl)c([C@]3(C)CS(=O)(=O)C(C)(C)C(=N)N3)s2)C1 (some centres unmarked) [Example 22f] | –
736 nM | 0.051 µM | – | CC1(C)C(=N)N[C@](C)(c2sc(C(=O)NCc3cccc(-c4ccon4)c3)cc2Cl)CS1(=O)=O [Example 22g] | –
2720 nM | 0.077 µM | – | CC1(C)C(=N)N[C@](C)(c2sc(C(=O)NCc3cc(Cl)ccn3)cc2Cl)CS1(=O)=O [Example 22u] | –
172 nM | < 0.2 µM | – | CC1(C)C(=N)N[C@](C)(c2sc(-c3ccc(F)c(C(F)(F)F)c3)cc2Cl)CS1(=O)=O [Example 27a] | –
– | ≤ 0.02 µM | 21 nM | COc1cccc2cc(-c3cc(F)c([C@]4(C)CS(=O)(=O)C(C)(C)C(=N)N4)s3)[nH]c12 [Example 27an] | –
– | ≤ 0.02 µM | 100 nM | CC1(C)C(=N)N[C@](C)(c2sc(-c3cccc(-c4ncon4)c3)cc2F)CS1(=O)=O [Example 27ao] | –
– | ≤ 0.02 µM | 76 nM | CC1(C)C(=N)N[C@](C)(c2sc(-c3cccc(C#N)c3)cc2F)CS1(=O)=O [Example 27aq] | –
– | ≤ 0.02 µM | 9.4 nM | CC1(C)C(=N)N[C@](C)(c2sc(-c3cc(F)cc(-c4nnco4)c3)cc2F)CS1(=O)=O [Example 27as] | –
– | ≤ 0.02 µM | 26 nM | CC1(C)C(=N)N[C@](C)(c2sc(-c3cc(F)cc(-c4cnco4)c3)cc2F)CS1(=O)=O [Example 27at] | –
102 nM | ≤ 0.02 µM | – | CC1(C)C(=N)N[C@](C)(c2sc(-c3nnc(-c4ccc(F)cc4)o3)cc2Cl)CS1(=O)=O [Example 27bb] | –
35.9 nM | ≤ 0.02 µM | – | CC1(C)C(=N)N[C@](C)(c2sc(-c3nnc(-c4ccc(Cl)cc4)o3)cc2Cl)CS1(=O)=O [Example 27bc] | –
– | ≤ 0.02 µM | 30.9 nM | CC1(C)C(=N)N[C@](C)(c2sc(-c3nnc(-c4ccc(Cl)cc4)o3)cc2F)CS1(=O)=O [Example 27bf] | –
– | ≤ 0.02 µM | 79.3 nM | CC1(C)C(=N)N[C@](C)(c2sc(-c3nnc(-c4ccc(F)cc4)o3)cc2F)CS1(=O)=O [Example 27bg] | –
– | ≤ 0.02 µM | 74 nM | COc1ccc(-c2nnc(-c3cc(F)c([C@]4(C)CS(=O)(=O)C(C)(C)C(=N)N4)s3)o2)cc1 [Example 27bh] | –
– | ≤ 0.01 µM | 18 nM | COc1cccc2cc(-c3cc(Cl)c([C@]4(C)CS(=O)(=O)[C@@](C)(CC5CCOCC5)C(=N)N4)s3)[nH]c12 [Example 27bx] | –
– | ≤ 0.01 µM | 74.5 nM | CC1(C)C(=N)N[C@](C)(c2sc(-c3cccc(C(F)(F)F)c3)cc2Cl)CS1(=O)=O [Example 27e] | –
– | ≤ 0.01 µM | 92.2 nM | CC1(C)C(=N)N[C@](C)(c2sc(-c3cncc(Cl)c3)cc2Cl)CS1(=O)=O [Example 27l] | –
– | ≤ 0.01 µM | 64.9 nM | CC1(C)C(=N)N[C@](C)(c2sc(-c3cc(Cl)cc(C#N)c3)cc2Cl)CS1(=O)=O [Example 27s] | –
– | ≤ 0.01 µM | 49.2 nM | CC1(C)C(=N)N[C@](C)(c2sc(-c3cccc(-n4nccn4)c3)cc2Cl)CS1(=O)=O [Example 27u] | –
– | 0.517 µM | – | COc1ccccc1Nc1ccc(F)c(C2(C)CS(=O)(=O)C(C)(C)C(=N)N2)n1 (centres unmarked) [Example 30a] | Ki ([1]; BACE1 Ki (nM)): 5280 nM
– | 0.005 µM | 22 nM | CC1(C)C(=N)N[C@](C)(c2cc(Nc3noc4cc(F)cnc34)ccc2F)CS1(=O)=O [Example 30b] | –

— patent US9499502B2, “5-substituted iminothiazines and their mono- and dioxides as BACE inhibitors, compositions, and their use” (Merck Sharp & Dohme Corp., priority 2011, dated 2016)
